Patent US9206200B2, “N-linked lactam M1 receptor positive allosteric mogulators” (Merck Sharp & Dohme Corp., priority 2011, dated 2015)

Target: T1, acetylcholine muscarinic M1 receptor (Homo sapiens, UniProt P11229)
T1 construct: expressed in transfected cells; host or cells: CHOnfat cells (CHO cells with an NFAT reporter) expressing hM1, kept under Geneticin selection
T1 sequence (P11229 1-460): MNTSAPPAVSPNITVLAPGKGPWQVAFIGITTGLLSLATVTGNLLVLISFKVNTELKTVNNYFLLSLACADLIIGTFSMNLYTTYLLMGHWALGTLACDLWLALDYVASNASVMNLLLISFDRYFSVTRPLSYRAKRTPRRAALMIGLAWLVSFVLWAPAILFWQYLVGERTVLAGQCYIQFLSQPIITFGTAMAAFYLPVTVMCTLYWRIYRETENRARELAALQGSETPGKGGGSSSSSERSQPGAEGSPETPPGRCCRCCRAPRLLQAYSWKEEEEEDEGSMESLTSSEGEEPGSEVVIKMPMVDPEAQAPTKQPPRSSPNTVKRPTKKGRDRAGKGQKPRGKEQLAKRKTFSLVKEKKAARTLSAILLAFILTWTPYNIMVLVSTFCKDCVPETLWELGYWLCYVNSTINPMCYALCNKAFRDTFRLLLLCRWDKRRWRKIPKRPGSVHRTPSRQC
Experiment: muscarinic FLIPR assay: intracellular calcium in CHOnfat/hM1 cells, potentiation of EC20 acetylcholine
Format: cell-based
Conditions: Table 2; CHOnfat/hM1 cells, FLIPR, EC20 acetylcholine (3 nM final); read-out: M1 Pot.
Method in brief: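 CHOnfat cells stably expressing human M1, Fluo-4AM-loaded, in HBSS with 20 mM HEPES, 2.5 mM probenecid, 1% BSA. Compounds preincubated 4 min (printed "4 mM") before an EC20 acetylcholine challenge (3 nM final). FLIPR intracellular Ca²⁺ signal compared with 3 nM acetylcholine alone to detect potentiation.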

Compound	EC50
CC1c2c(cc(CN3CCN(c4cnn(C)c4)CC3)c3cccnc23)C(=O)N1C1CCCCC1O (stereo not shown) [Example 158, 8-(2-hydroxycyclohexyl)-9-methyl-5-{[4-(1-methyl-1H-pyrazol-4-yl)piperazin-1-yl]methyl}-8,9-dihydro-7H-pyrrolo[3,4-h]quinolin-7-one]	70 nM
O=C1c2cc(CN3CCN(c4ccncc4)CC3)c3cccnc3c2CN1C1CCCCC1O (stereo not shown) [Example 160, 8-(2-hydroxycyclohexyl)-5-[(4-pyridin-4-ylpiperazin-1-yl)methyl]-8,9-dihydro-7H-pyrrolo[3,4-h]quinolin-7-one]	110 nM
CC1c2c(cc(CN3CCC(c4ccncc4)CC3)c3cccnc23)C(=O)N1C1CCCCC1O (stereo not shown) [Example 161, 8-(2-hydroxycyclohexyl)-9-methyl-5-[(4-pyridin-4-ylpiperidin-1-yl)methyl]-8,9-dihydro-7H-pyrrolo[3,4-h]quinolin-7-one]	650 nM
CC1c2c(cc(CN3CCN(c4cccnc4)CC3)c3cccnc23)C(=O)N1C1CCCCC1O (stereo not shown) [Example 163, 8-(2-hydroxycyclohexyl)-9-methyl-5-[(4-pyridin-3-ylpiperazin-1-yl)methyl]-8,9-dihydro-7H-pyrrolo[3,4-h]quinolin-7-one]	520 nM
CC1c2c(cc(CN3CCN(c4ccccn4)CC3)c3cccnc23)C(=O)N1C1CCCCC1O (stereo not shown) [Example 166, 8-(2-hydroxycyclohexyl)-9-methyl-5-[(4-pyridin-2-ylpiperazin-1-yl)methyl]-8,9-dihydro-7H-pyrrolo[3,4-h]quinolin-7-one]	580 nM
COc1ccc(N2CCN(Cc3cc4c(c5ncccc35)C(C)N(C3CCCCC3O)C4=O)CC2)cc1 (stereo not shown) [Example 169, 8-(2-hydroxycyclohexyl)-5-{[4-(4-methoxyphenyl)piperazin-1-yl]methyl}-9-methyl-8,9-dihydro-7H-pyrrolo[3,4-h]quinolin-7-one]	590 nM
COc1ccc(N2CCN(Cc3cc4c(c5ncccc35)C(C)N(C3CCCCC3O)C4=O)CC2)cc1 (stereo not shown) [Example 170, 8-(2-hydroxycyclohexyl)-5-{[4-(4-methoxyphenyl)piperazin-1-yl]methyl}-9-methyl-8,9-dihydro-7H-pyrrolo[3,4-h]quinolin-7-one]	100 nM

Now those with a lower EC50, led by results:

EC50	Compound
59 nM	CC1c2c(cc(CN3CCN(c4ccccn4)CC3)c3cccnc23)C(=O)N1C1CCCCC1O (stereo not shown) [Example 167, 8-(2-hydroxycyclohexyl)-9-methyl-5-[(4-pyridin-2-ylpiperazin-1-yl)methyl]-8,9-dihydro 7H-pyrrolo[3,4-h]quinolin-7-one]
36 nM	CC1c2c(cc(CN3CCN(c4cccnc4)CC3)c3cccnc23)C(=O)N1C1CCCCC1O (stereo not shown) [Example 164, 8-(2-hydroxycyclohexyl)-9-methyl-5-[(4-pyridin-3-ylpiperazin-1-yl)methyl]-8,9-dihydro-7H-pyrrolo[3,4-h]quinolin-7-one]
28 nM	O=C1c2cc(CN3CCN(c4cccnc4)CC3)c3cccnc3c2CN1C1CCCCC1O (stereo not shown) [Example 162, 8-(2-hydroxycyclohexyl)-5-[(4-pyridin-3-ylpiperazin-1-yl)methyl]-8,9-dihydro-7H-pyrrolo[3,4-h]quinolin-7-one]
24 nM	COc1ccc(N2CCN(Cc3cc4c(c5ncccc35)CN(C3CCCCC3O)C4=O)CC2)cc1 (stereo not shown) [Example 168, 8-(2-hydroxycyclohexyl)-5-{[4-(4-methoxyphenyl)piperazin-1-yl]methyl}-8,9-dihydro-7H-pyrrolo[3,4-h]quinolin-7-one]
23 nM	O=C1c2cc(CN3CCN(c4ccc(F)cc4)CC3)c3cccnc3c2CN1C1CCCCC1O (stereo not shown) [Example 171, 5-{[4-(4-fluorophenyl)piperazin-1-yl]methyl}-8-(2-hydroxycyclohexyl)-8,9-dihydro-7H-pyrrolo[3,4-h]quinolin-7-one]
15 nM	O=C1c2cc(CN3CCN(c4ccccn4)CC3)c3cccnc3c2CN1C1CCCCC1O (stereo not shown) [Example 165, 8-(2-hydroxycyclohexyl)-5-[(4-pyridin-2-ylpiperazin-1-yl)methyl]-8,9-dihydro-7H-pyrrolo[3,4-h]quinolin-7-one]
